Consider seven molecules from patent US20060088509A1, “Isolated clk-1 -/- cells from clk-1 heterozygous animals and their use in treating oxidative stress disorders” (priority 2004, published 2006).

The subject of series [1] is mclk1 −/− ES cells. In words: Sensitivity to cell death-inducing agents (trypan blue exclusion). The note with it: for Sensitivity of mclk1 −/− ES cells to the cell death-inducing agent: compared with mclk1 +/+ cells, etoposide 20 μM 24 h, anisomysin 2 μM 24 h, staurosporine 0.4 μM 24 h, all-trans retinoic acid 1 μM 96 h, sodium azide 15 μM 24 h. Type of series: cell-based, mouse. As for the experimental part: We tested serum starvation (48 hours) and treatment with etoposide (20 μM, 24 hours), anisomysin (2 μM, 24 hours), staurosporine (0.4 μM; 24 hours), all-trans retinoic acid (1 μM, 96 hours) and sodium azide (15 μM, 24 hours).

In series [2] the test system is mclk1 +/+ ES cells. In words: Growth rate (cell multiplication). The note with it: for Cell multiplication, percent of the wild-type phenotype: number in brackets; for Cell multiplication: number of cells on day 5, day 1 being 1 × 10^5. Format: cell-based, mouse. As for the experimental part: (§1) Cells were seeded in six-well dishes at 1×10^5/well in ES cell medium with or without supplements (UQ9: 0.16 μM, sodium pyvurate: 110 mg/L). At different time points, the cells were trypsinized and counted with a hemocytometer. The cells were also analyzed by the trypan blue exclusion method 24 hours after treatment with menadione (6 μM).

The subject of series [3] is mclk1 −/− ES cells. In words: Growth rate (cell multiplication). Format: cell-based, mouse. The note with it: for Cell multiplication, percent of the wild-type phenotype: number in brackets; for Cell multiplication: number of cells on day 5, day 1 being 1 × 10^5. The method, then:
as §1

In series [4] the test system is mclk1 +/+ ES cells. In words: Reactive oxygen species measurement (DCHF-DA fluorescence). The settings on record: for Basal ROS levels, percent of the wild-type phenotype / Induced ROS levels, percent of the wild-type phenotype: number in brackets; for Induced ROS levels: oxidative stress induced by 0.1 mM FeSO4 and 0.2 mM sodium ascorbate. Type of series: cell-based, mouse. As for the experimental part:
(§2) For the fluorimetric measurement of ROS, cells were incubated with 10 μM DCHF-DA (Molecular Probes) for 20 min at 37° C. ROS levels were measured fluorimetrically with excitation and emission wavelenghts of 495 nm and 530 nm, respectively. Oxidative stress was induced by incubating the cells loaded with DCHF-DA with 0.1 mM FeSO4 and 0.2 mM sodium ascorbate.

In series [5] the test system is mclk1 −/− ES cells. The series is described as above. Format: cell-based, mouse. The note with it: for Basal ROS levels, percent of the wild-type phenotype / Induced ROS levels, percent of the wild-type phenotype: number in brackets; for Induced ROS levels: oxidative stress induced by 0.1 mM FeSO4 and 0.2 mM sodium ascorbate. As for the experimental part:
as §2

Series [6] relates to mclk1 +/+ ES cells. In words: LIF requirement assay. The note with it: for LIF requirement [% undifferentiated colonies, n = 300]: day 3, medium with LIF; for LIF requirement, percent of the wild-type phenotype: number in brackets. Type of series: cell-based, mouse. On the set-up: LIF requirement [% undifferentiated colonies, n = 300]: dose or concentration left out as unconfirmed. As for the experimental part: (§3) ES cells were plated at a density of 500 cells/cm^2 in gelatin-coated 6-well plates in ES cell medium containing various concentration of LIF. Three days after inoculation, the proportion of undifferentiated colonies was determined after scoring the morphology of 300 randomly chosen colonies.

Series [7] has as its system mclk1 −/− ES cells. In words: Oxygen consumption. Type of series: cell-based, mouse. The note with it: for Oxygen consumption, percent of the wild-type phenotype: number in brackets; for Effect on low respiration, slow growth, and LIF resistance phenotypes: sentence also covers growth and LIF assays.
Series [8] concerns mclk1 +/+ ES cells. In words: Oxygen consumption. Format: cell-based, mouse. Also on record: Oxygen consumption: scale not given here. The settings on record: for Oxygen consumption, percent of the wild-type phenotype: number in brackets.
For series [9], the system named is mclk1 +/+ ES cells. Kind of series: Cell death assay: resistance to menadione (trypan blue exclusion). Format: cell-based, mouse. The note with it: for Resistance to menadione [% viability]: 24 hours in menadione 6 μM, with the supplement named as label; for Resistance to menadione, percent of the wild-type phenotype: number in brackets. The method, then:
as §1

Series [10] concerns mclk1 −/− ES cells. Described as above. Format: cell-based, mouse. The note with it: for Resistance to menadione [% viability]: 24 hours in menadione 6 μM, with the supplement named as label; for Resistance to menadione, percent of the wild-type phenotype: number in brackets. As for the experimental part:
as §1

Series [11] has as its system mclk1 −/− ES cells. Kind of series: LIF requirement assay. Format: cell-based, mouse. The settings on record: number in brackets. The method, then:
as §3

For series [12], the target named is T1, Mitochondrial complex II (Mus musculus, UniProt Q9CQA3+Q9CXV1+Q9CZB0).
T1 construct: mitochondria (containing 50 μg protein) were pre-incubated with reaction buffer; endogenous in cells; host or cells: mitochondria isolated from mouse mclk1 +/+ and mclk1 -/- ES cells
Kind of series: Mitochondrial complex II activity of mclk1 −/− ES cells. Format: biochemical. As for the experimental part: Mitochondrial complex II activity was measured as follows: mitochondria (containing 50 μg protein) were pre-incubated with reaction buffer ([…]) for 10 minutes at room temperature. The reaction was started by adding 2 μg/ml Antimycin A, 2 μg/ml Rotenone, 2 mM KCN, 50 μM 2,6-Dichlorophenolindophenol (Sigma) in the presence or absence of 65 μM Q1. The linear decrease in absorbance at 600 nm was recorded (ε=21 mM-1 cm^−1).

Setting [13] is: mclk1 −/− ES cells, number in brackets.

T1 sequence (Q8K2B3 43-664 partner): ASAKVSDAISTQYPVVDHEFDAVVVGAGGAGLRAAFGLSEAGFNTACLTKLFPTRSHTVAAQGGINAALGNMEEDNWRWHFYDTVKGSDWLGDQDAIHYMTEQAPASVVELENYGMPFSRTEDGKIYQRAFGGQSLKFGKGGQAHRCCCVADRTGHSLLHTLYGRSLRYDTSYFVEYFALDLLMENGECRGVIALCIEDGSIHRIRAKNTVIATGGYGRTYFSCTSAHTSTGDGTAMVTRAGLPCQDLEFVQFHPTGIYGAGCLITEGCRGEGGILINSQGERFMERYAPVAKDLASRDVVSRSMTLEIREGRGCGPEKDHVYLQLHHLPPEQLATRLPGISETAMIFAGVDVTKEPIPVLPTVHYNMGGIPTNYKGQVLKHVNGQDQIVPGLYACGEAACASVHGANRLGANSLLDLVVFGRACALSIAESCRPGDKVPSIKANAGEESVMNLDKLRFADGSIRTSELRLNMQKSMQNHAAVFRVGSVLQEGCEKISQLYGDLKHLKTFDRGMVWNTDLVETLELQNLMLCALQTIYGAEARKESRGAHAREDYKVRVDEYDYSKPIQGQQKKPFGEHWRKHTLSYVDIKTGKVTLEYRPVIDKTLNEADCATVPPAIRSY
T1 sequence (Q9CQA3 31-282): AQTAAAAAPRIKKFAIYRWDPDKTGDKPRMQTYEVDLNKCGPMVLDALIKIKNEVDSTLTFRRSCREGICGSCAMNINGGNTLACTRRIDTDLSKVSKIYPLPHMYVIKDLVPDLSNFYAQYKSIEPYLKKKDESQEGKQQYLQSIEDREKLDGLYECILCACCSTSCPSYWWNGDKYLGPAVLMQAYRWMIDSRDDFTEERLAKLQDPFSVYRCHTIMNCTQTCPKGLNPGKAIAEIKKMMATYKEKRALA
T1 sequence (Q9CZB0 30-169): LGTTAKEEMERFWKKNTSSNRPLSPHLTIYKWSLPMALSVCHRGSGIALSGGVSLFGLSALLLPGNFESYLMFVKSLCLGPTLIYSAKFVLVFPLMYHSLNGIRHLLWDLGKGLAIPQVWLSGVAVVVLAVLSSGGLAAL
T1 sequence (Q9CXV1 57-159): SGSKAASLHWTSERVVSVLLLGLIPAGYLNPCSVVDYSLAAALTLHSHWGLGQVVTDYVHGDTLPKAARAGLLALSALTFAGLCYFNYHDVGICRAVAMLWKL

On to `CC(=O)C(=O)[O-].[Na+]` [Sodium pyruvate, sodium pyruvate], for which the “Resistance of mclk1 −/− cells to cell death-inducing agents upon treatment with sodium pyruvate” value in series [1] (etoposide, anisomycin, all-trans retinoic acid, serum withdrawal) is recorded as “indistinguishable from that of the mclk1 +/+ cells”. In [2], the “Cell multiplication, percent of the wild-type phenotype” value (shortened to “Cell multiplication, percent”) was “(99) percent of the wild-type phenotype” and the Cell multiplication is given as 25.0 ± 4.8 ×10^5 cells. Besides, in [3], the “Cell multiplication, percent” value is “(75) percent of the wild-type phenotype” and the Cell multiplication is 18.9 ± 2.8 ×10^5 cells. Also, in [4], the “Basal ROS levels” value is given as 4.1 ± 0.3 Fluorescence Unit × 100/μg pro; the “Basal ROS levels, percent of the wild-type phenotype” value (“Basal ROS levels, percent” below) is reported as “(100) percent of the wild-type phenotype”; the “Induced ROS levels, percent of the wild-type phenotype” value (shortened to “Induced ROS levels, percent”) was “(102) percent of the wild-type phenotype”; the “Induced ROS levels” value is recorded as 11.8 ± 1.2 Fluorescence Unit × 100/μg Pro. Further, in series [5], the “Basal ROS levels” value is 2.3 ± 0.2 Fluorescence Unit × 100/μg pro; the “Basal ROS levels, percent” value is “(57) percent of the wild-type phenotype”; the “Induced ROS levels, percent” value is listed as “(70) percent of the wild-type phenotype”; the “Induced ROS levels” value was 8.1 ± 1.1 Fluorescence Unit × 100/μg Pro. For the same molecule, in series [6], the “LIF requirement [% undifferentiated colonies, n = 300]” value is reported as 39.3 ± 12.7 % undifferentiated colonies and the “LIF requirement, percent of the wild-type phenotype” value (shortened to “LIF requirement, percent”) is recorded as “(90) percent of the wild-type phenotype”. In series [7], the Oxygen consumption was 7.9 ± 0.4 103 μl O2/sec/μg of protein; the “Oxygen consumption, percent of the wild-type phenotype” value (“Oxygen consumption, percent” below) is “(85) percent of the wild-type phenotype”; the “Effect on low respiration, slow growth, and LIF resistance phenotypes” value is listed as “ameliorated”. For the same molecule, in [8], the Oxygen consumption was 9.1 ± 0.4 103 μl O2/sec/μg of protein and the “Oxygen consumption, percent” value is recorded as “(98) percent of the wild-type phenotype”. Also, in [9], the “Resistance to menadione [% viability]” value was 23 ± 7.5 % viability and the “Resistance to menadione, percent of the wild-type phenotype” value (“Resistance to menadione, percent” for short) is “(101) percent of the wild-type phenotype”. For the same molecule, in series [10], the “Resistance to menadione [% viability]” value is reported as 68.9 ± 6.5 % viability and the “Resistance to menadione, percent” value is listed as “(304) percent of the wild-type phenotype”. Also, the “LIF requirement, percent” value in series [11] is given as “(418) percent of the wild-type phenotype”.
As for `COC1=C(OC)C(=O)C(C/C=C(\C)CC/C=C(\C)CC/C=C(\C)CC/C=C(\C)CC/C=C(\C)CC/C=C(\C)CC/C=C(\C)CC/C=C(\C)CC/C=C(\C)CCC=C(C)C)=C(C)C1=O` [UQ9, ubiquinone], in series [2], the “Cell multiplication, percent” value was “(100) percent of the wild-type phenotype” and the Cell multiplication is listed as 25.3 ± 5.5 ×10^5 cells. In series [3], the “Cell multiplication, percent” value was “(69) percent of the wild-type phenotype” and the Cell multiplication is given as 17.5 ± 0.4 ×10^5 cells. Further, in series [4], the “Basal ROS levels” value is listed as 3.8 ± 0.2 Fluorescence Unit × 100/μg pro; the “Basal ROS levels, percent” value is “(94) percent of the wild-type phenotype”; the “Induced ROS levels, percent” value was “(100) percent of the wild-type phenotype”; the “Induced ROS levels” value was 11.5 ± 0.5 Fluorescence Unit × 100/μg Pro. In addition, in series [5], the “Basal ROS levels” value is given as 2.4 ± 0.3 Fluorescence Unit × 100/μg pro; the “Basal ROS levels, percent” value is “(59) percent of the wild-type phenotype”; the “Induced ROS levels, percent” value is reported as “(57) percent of the wild-type phenotype”; the “Induced ROS levels” value is 6.7 ± 1.2 Fluorescence Unit × 100/μg Pro. In series [6], the “LIF requirement [% undifferentiated colonies, n = 300]” value is on record as 39.0 ± 18.5 % undifferentiated colonies and the “LIF requirement, percent” value is “(90) percent of the wild-type phenotype”. In series [7], the Oxygen consumption is 6.8 ± 0.7 103 μl O2/sec/μg of protein; the “Oxygen consumption, percent” value was “(72) percent of the wild-type phenotype”; the “Effect on low respiration, slow growth, and LIF resistance phenotypes” value was “ameliorated”. Besides, in series [8], the Oxygen consumption was 8.96 ± 0.8 103 μl O2/sec/μg of protein and the “Oxygen consumption, percent” value is “(96) percent of the wild-type phenotype”. Besides, in [9], the “Resistance to menadione [% viability]” value amounted to 24 ± 2.9 % viability and the “Resistance to menadione, percent” value was “(105) percent of the wild-type phenotype”. In series [10], the “Resistance to menadione [% viability]” value is recorded as 91.3 ± 3.4 % viability and the “Resistance to menadione, percent” value is listed as “(403) percent of the wild-type phenotype”. The “LIF requirement, percent” value in series [11] is given as “(446) percent of the wild-type phenotype”. Besides, in [12] (mclk1 −/− ES cells grown with the supplement), the “Mitochondrial complex II activity without exogenous Q1” value is reported as 9.1 ± 0.5 nmol/min/mg protein. Moreover, the “Mitochondrial complex II activity with exogenous Q1” value in [12] (mclk1 −/− ES cells grown with the supplement, Q1 added in vitro) is 39.0 ± 3.5 nmol/min/mg protein. In series [12] (setting [13]), the “Mitochondrial complex II activity with exogenous Q1, percent of the wild-type phenotype” value was “(64) percent of the wild-type phenotype” and the “Mitochondrial complex II activity without exogenous Q1, percent of the wild-type phenotype” value is “(60) percent of the wild-type phenotype”.
For the molecule `CC1=C(/C=C/C(C)=C/C=C/C(C)=C/C(=O)O)C(C)(C)CCC1` [all-trans retinoic acid], the “Sensitivity of mclk1 −/− ES cells to the cell death-inducing agent” value (shortened to “Sensitivity of mclk1 −/− ES cells”) in series [1] was “resistant”.
Still for that read-out and setting: the same measure for `COc1ccc(C[C@H]2NC[C@H](O)[C@H]2OC(C)=O)cc1` [anisomycin]: “resistant”.
`COc1cc([C@@H]2c3cc4c(cc3[C@@H](O[C@@H]3O[C@@H]5CO[C@@H](C)O[C@H]5[C@H](O)[C@H]3O)[C@H]3COC(=O)[C@H]23)OCO4)cc(OC)c1O` [etoposide]: in series [1], the “Sensitivity of mclk1 −/− ES cells” value was “resistant”.
For `CC1=CC(=O)c2ccccc2C1=O` [menadione], in [1], the “Sensitivity of mclk1 −/− ES cells” value is recorded as “resistance”. For the same molecule, the “Resistance to menadione [% viability]” value in [9] turned out to be 22.7 ± 5.4 % viability; in [10] it was 68.4 ± 5.4 % viability. Besides, the “Resistance to menadione, percent” value in [9] was “(100) percent of the wild-type phenotype”; in series [10] it was “(304) percent of the wild-type phenotype”.
On to `CN[C@@H]1C[C@H]2O[C@@](C)([C@@H]1OC)n1c3ccccc3c3c4c(c5c6ccccc6n2c5c31)C(=O)NC4` [staurosporine], for which, in [1], the “Sensitivity of mclk1 −/− ES cells” value is “neither resistant nor hyper-sensitive”.
